Measured values from BindingDB's records for doi:10.1021/acs.jmedchem.8b00629 (Ludwig-Maximilians-University Munich, 2018).

Assay: Inhibition of mouse GAT3 expressed in HEK293 cells assessed as reduction in [3H]GABA uptake preincubated for 25 mins followed by [3H]GABA addition measured after 4 mins by liquid scintillation counting analysis

Row | IC50 [µM] | Compound
1 | > 100 | O=C(O)[C@@H]1CCCN(CCC#Cc2cccc(/N=N/c3ccccc3)c2)C1
2 | > 100 | O=C(O)[C@@H]1CCCN(CCC#Cc2ccc(/N=N/c3ccccc3)cc2)C1
3 | > 100 | O=C(O)[C@@H]1CCCN(CCC#Cc2cccc(/N=N/c3cccc4ccccc34)c2)C1
4 | > 100 | O=C(O)[C@@H]1CCCN(CCC#Cc2ccc(/N=N/c3cccc4ccccc34)cc2)C1

Assay: Inhibition of mouse GAT2 expressed in HEK293 cells assessed as reduction in [3H]GABA uptake preincubated for 25 mins followed by [3H]GABA addition measured after 4 mins by liquid scintillation counting analysis

Row | IC50 [µM] | Compound
5 | > 100 | O=C(O)[C@@H]1CCCN(CCC#Cc2cccc(/N=N/c3ccccc3)c2)C1
6 | > 100 | O=C(O)[C@@H]1CCCN(CCC#Cc2ccc(/N=N/c3ccccc3)cc2)C1
7 | > 100 | O=C(O)[C@@H]1CCCN(CCC#Cc2cccc(/N=N/c3cccc4ccccc34)c2)C1
8 | > 100 | O=C(O)[C@@H]1CCCN(CCC#Cc2ccc(/N=N/c3cccc4ccccc34)cc2)C1
